Source: patent US20080031887A1, “Conjugates for inducing targeted immune responses and methods of making and using same” (priority 2006, published 2008)

What was measured:
Format in all cases: in vivo
TUBO cells [1] = assay: TUBO tumors implanted s.c. in Balb/c (non-tolerant) mice, treatment from day 10; conditions: 20 μg/injection three times a week for three weeks; for antitumor effect (tumor rejection / tumor growth): i.t. injection, FIG. 1A; for antitumor effect: s.c. injection in the opposite flank, data not shown
Protocol: (§1) FIG. 1 contains graphic representations illustrating that intratumoral injections of CpG-ODN induce rejection of tumors in Balb/c, BALB-neuT and A2×neu mice. Balb/c and BALB-neuT were implanted s.c. with 10^6 TUBO cells, and A2×neu mice were implanted s.c. with 10^6 N202.A2 cells on day zero. On day 10, animals started treatment with i.t. injections of TLR-ligands three times a week (20 μg/injection) for three weeks. […]
(§2) For these experiments, Balb/c (non-tolerant) and BALB-neuT (tolerant) mice implanted with TUBO cells and A2×neu mice implanted with N202.A2 cells were used (it is important to remember that TUBO cells are tumorigenic in Balb/c and BALB-neuT mice, while N202.A2 cells are tumorigenic only in A2×neu mice but not in A2×FVB mice). It is well established that the injection of these ligands results in the activation of DCs, monocytes/macrophages, and B cells, and as a consequence of the activation of these cells, NK cell and T cell responses are stimulated. […] Balb/c and BALB-neuT mice were implanted s.c. with 10^6 TUBO cells, and A2×neu mice were implanted s.c. with 10^6 N202.A2 cells on day zero. On day 10, animals started treatment with s.c. injections of anti-CD40 mAb, Poly I:C, LPS, flagellin, imiquimod, CpG-ODN and control-ODN (as a control) in the opposite flank from where the tumor was injected, three times a week (20 μg/injection) for three weeks. […] It was decided to test whether intratumoral (i.t.) injection of TLR ligands would result in the induction of an antitumor response. The effect of i.t. injections of anti-CD40 mAb, Poly I:C, LPS, flagellin, imiquimod, CpG-ODN and control-ODN (as a control) three times a week (20 μg/injection) for three weeks was tested. […]
Evaluation of anti-neu-CpG-ODN (cleavable bond) vs. anti-neu-CpG-ODN (non-cleavable bond). In determining the effectiveness of the conjugates of the present invention, the antitumor effects of anti-neu-CpG-ODN generated with a cleavable bond or non-cleavable bond were evaluated. Anti-neu-CpG-ODN generated with a non-cleavable bond was produced by the reaction pathway shown in FIG. 7A and contained a hydrazone linkage between the Anti-neu antibody and the CpG-ODN. Anti-neu-CpG-ODN generated with a cleavable bond was produced by the reaction pathway shown in FIG. 7B and contained a disulfide cleavable linkage. TUBO cells (1×10^6) were implanted s.c. on day zero on Balb/c. Starting on day 10, animals were injected intratumorally with 30 μg/injection of each of the anti-neu-CpG-ODN molecules three times a week for three weeks.

TUBO cells [2] = assay: TUBO tumors implanted s.c. in BALB-neuT (tolerant) mice, treatment from day 10; conditions: 20 μg/injection three times a week for three weeks; for antitumor effect (tumor rejection / tumor growth): i.t. injection, FIG. 1B; for antitumor effect: s.c. injection in the opposite flank, data not shown
Protocol: as §1, §2

N202.A2 cells = assay: N202.A2 tumors implanted s.c. in A2×neu mice, treatment with TLR ligands from day 10; conditions: 20 μg/injection three times a week for three weeks; for antitumor effect (tumor rejection / tumor growth): i.t. injection, FIG. 1C; for antitumor effect: s.c. injection in the opposite flank, data not shown
Protocol: FIG. 1 contains graphic representations illustrating that intratumoral injections of CpG-ODN induce rejection of tumors in Balb/c, BALB-neuT and A2×neu mice. Balb/c and BALB-neuT were implanted s.c. with 10^6 TUBO cells, and A2×neu mice were implanted s.c. with 10^6 N202.A2 cells on day zero. On day 10, animals started treatment with i.t. injections of TLR-ligands three times a week (20 μg/injection) for three weeks.
For these experiments, Balb/c (non-tolerant) and BALB-neuT (tolerant) mice implanted with TUBO cells and A2×neu mice implanted with N202.A2 cells were used (it is important to remember that TUBO cells are tumorigenic in Balb/c and BALB-neuT mice, while N202.A2 cells are tumorigenic only in A2×neu mice but not in A2×FVB mice). It is well established that the injection of these ligands results in the activation of DCs, monocytes/macrophages, and B cells, and as a consequence of the activation of these cells, NK cell and T cell responses are stimulated. […] Balb/c and BALB-neuT mice were implanted s.c. with 10^6 TUBO cells, and A2×neu mice were implanted s.c. with 10^6 N202.A2 cells on day zero. On day 10, animals started treatment with s.c. injections of anti-CD40 mAb, Poly I:C, LPS, flagellin, imiquimod, CpG-ODN and control-ODN (as a control) in the opposite flank from where the tumor was injected, three times a week (20 μg/injection) for three weeks. […] It was decided to test whether intratumoral (i.t.) injection of TLR ligands would result in the induction of an antitumor response. The effect of i.t. injections of anti-CD40 mAb, Poly I:C, LPS, flagellin, imiquimod, CpG-ODN and control-ODN (as a control) three times a week (20 μg/injection) for three weeks was tested.

`CC(C)Cn1cnc2c(N)nc3ccccc3c21` [imiquimod] was tested, and the “antitumor effect (tumor rejection / tumor growth)” value (TUBO cells [1]) was “did not have any effect in controlling the tumor growth”, the antitumor effect (TUBO cells [1]) was “no antitumor effect” and the “antitumor effect (tumor rejection / tumor growth)” value (TUBO cells [2]) was “did not have any effect in controlling the tumor growth”. For the same compound, the antitumor effect (TUBO cells [2]) was “no antitumor effect”, the “antitumor effect (tumor rejection / tumor growth)” value (N202.A2 cells) was “did not have any effect in controlling the tumor growth” and the antitumor effect (N202.A2 cells) was “no antitumor effect”.

With Poly I:C the “antitumor effect (tumor rejection / tumor growth)” value (TUBO cells [1]) was “induced the rejection of tumors”, the antitumor effect (TUBO cells [1]) was “no antitumor effect” and the antitumor effect (TUBO cells [2]) was “no antitumor effect”. The antitumor effect (N202.A2 cells) was “no antitumor effect”.

With flagellin the “antitumor effect (tumor rejection / tumor growth)” value (TUBO cells [1]) was “did not have any effect in controlling the tumor growth”, the antitumor effect (TUBO cells [1]) was “no antitumor effect” and the “antitumor effect (tumor rejection / tumor growth)” value (TUBO cells [2]) was “did not have any effect in controlling the tumor growth”. The antitumor effect (TUBO cells [2]) was “no antitumor effect”, the “antitumor effect (tumor rejection / tumor growth)” value (N202.A2 cells) was “did not have any effect in controlling the tumor growth” and the antitumor effect (N202.A2 cells) was “no antitumor effect”.
